Measurements as given in patent publication US12011444B2, “N-substituted indole derivatives as PGE2 receptor modulators” (Idorsia Pharmaceuticals Ltd, priority 2015, dated 2024).

Tests used:
PTGER2 (EP2) = PTGER2 (EP2) (Homo sapiens (Human), UniProt P43116); test: hEP2 b-arrestin assay (PathHunter HEK 293 PTGER2 b-arrestin cells); type: cell-based
Excerpt: (§1) The assay is using the PathHunter™ HEK 293 PTGER2 and PTGER4 b-arrestin cell lines from DiscoverX. The system is based on the Enzyme Fragment Complementation Technology. Two complementing fragments of the b-galactosidase enzyme are expressed within stably transfected cells. The larger portion of b-gal, termed EA for Enzyme Acceptor, is fused to the C-terminus of b-arrestin 2. The smaller fragment, termed ProLink™ tag, is fused to PTGER2 (EP2) or PTRGER4 (EP4) at the C-terminus. Upon activation, b-arrestin is recruited which forces the interaction of ProLink and EA, allowing complementation of the two fragments of b-gal and the formation of a functional enzyme which is capable of hydrolysing the substrate and generating a chemiluminescent signal.
(§2) 5000 cells per well of a 384 well plate (white with white bottom Greiner 781080) are seeded in 20 ul per well of GM. Plate is incubated at 37° C., 5% C02 for 24 hours.
Plate is pre-incubated 15 minutes at 37° C. Then five microliters of PGE2 (final conc. 5 μM) are transferred into the assay plate. Plate is incubated 120 minutes at 37° C.
(§3) Twelve μl of reagent are transferred to the assay plate and incubate for 1 hour at room temperature in the dark. Luminescence counts are read on a BMG Fluostar Optima reader according to manufacturer's instructions. For each compound concentration calculate of the percentage of activity compared to DMSO control value as average±STDEV. (each concentration is measured in duplicate)

PTRGER4 (EP4) = PTRGER4 (EP4) (Homo sapiens (Human), UniProt P35408); test: hEP4 b-arrestin assay (PathHunter HEK 293 PTGER4 b-arrestin cells); type: cell-based
Excerpt: as §1, §2
Plate is pre-incubated 15 minutes at 37° C. Then five microliters of PGE2 (final conc. 20 nM) are transferred into the assay plate. Plate is incubated 120 minutes at 37° C.
as §3, with “average±STDEV.” for “average±STDEV. (each concentration is measured in duplicate)”

[1] = antagonistic activity on hEP2, mean where measured multiple times
[2] = antagonistic activity on hEP4, mean where measured multiple times
[3] = hEP2 b-arrestin assay (values without asterisk)
[4] = hEP4 b-arrestin assay (values without asterisk)

Chain of PTRGER4 (EP4) (P35408 whole entry, looked up): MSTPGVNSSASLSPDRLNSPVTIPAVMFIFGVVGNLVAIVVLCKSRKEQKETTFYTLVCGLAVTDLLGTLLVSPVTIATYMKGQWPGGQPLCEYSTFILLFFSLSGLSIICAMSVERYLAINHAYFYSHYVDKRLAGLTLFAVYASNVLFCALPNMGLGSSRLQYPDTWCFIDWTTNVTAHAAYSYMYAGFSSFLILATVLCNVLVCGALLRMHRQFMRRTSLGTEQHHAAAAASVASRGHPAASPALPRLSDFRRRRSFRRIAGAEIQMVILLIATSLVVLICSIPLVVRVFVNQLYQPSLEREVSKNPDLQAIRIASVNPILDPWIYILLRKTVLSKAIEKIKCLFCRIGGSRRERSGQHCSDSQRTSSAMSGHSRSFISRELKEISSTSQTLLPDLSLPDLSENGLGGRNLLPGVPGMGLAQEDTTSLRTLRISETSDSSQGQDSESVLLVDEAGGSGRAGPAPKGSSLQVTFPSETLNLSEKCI
Chain of PTGER2 (EP2) (P43116 whole entry, the tested form may be a part): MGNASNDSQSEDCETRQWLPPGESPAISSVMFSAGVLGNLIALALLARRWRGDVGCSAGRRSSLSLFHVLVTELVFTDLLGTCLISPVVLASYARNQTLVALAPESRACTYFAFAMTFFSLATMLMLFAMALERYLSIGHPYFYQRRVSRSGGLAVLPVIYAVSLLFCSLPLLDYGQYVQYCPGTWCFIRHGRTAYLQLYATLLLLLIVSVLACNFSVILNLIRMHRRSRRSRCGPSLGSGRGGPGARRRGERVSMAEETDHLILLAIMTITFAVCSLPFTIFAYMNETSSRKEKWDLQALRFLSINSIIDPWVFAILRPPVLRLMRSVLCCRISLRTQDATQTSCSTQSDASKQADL

## CCOc1cc(-c2cc(NCCn3c(C)cc4c(C)ccc(F)c43)ncn2)ccc1C(=O)O [Example 158, 2-ethoxy-4-{6-[2-(7-fluoro-2,4-dimethyl-indol-1-yl)-ethylamino]-pyrimidin-4-yl}-benzoic acid]
PTGER2 (EP2); [1]
  IC50: 39 nM
PTRGER4 (EP4); [2]
  IC50: 163 nM

## CCOc1cc(-c2cc(NCCn3c(C)cc4c(OC)ccc(F)c43)ncn2)sc1C(=O)O [Example 258, 3-Ethoxy-5-{6-[2-(7-fluoro-4-methoxy-2-methyl-indol-1-yl)-ethylamino]-pyrimidin-4-yl}-thiophene-2-carboxylic acid]
PTGER2 (EP2); [1]
  IC50: 1 nM
PTRGER4 (EP4); [2]
  IC50: 10 nM

## CCOc1cc(-c2cc(NCCn3c(C)cc4c(OC)ccc(F)c43)ncn2)ccc1C(=O)O [Example 326, 2-ethoxy-4-{6-[2-(7-fluoro-4-methoxy-2-methyl-indol-1-yl)-ethylamino]-pyrimidin-4-yl}-benzoic acid]
PTGER2 (EP2); [1]
  IC50: 18 nM
PTRGER4 (EP4); [2]
  IC50: 224 nM

## COc1ccc(F)c2c1cc(C)n2CCNc1cc(-c2ccc(-c3csc(O)n3)cc2)ncn1 [Example 798, 4-(4-{6-[2-(7-Fluoro-4-methoxy-2-methyl-indol-1-yl)-ethylamino]-pyrimidin-4-yl}-phenyl)-thiazol-2-ol]
PTGER2 (EP2); [3]
  IC50: 28 nM
PTRGER4 (EP4); [4]
  IC50: 123 nM

## COc1ccc(F)c2c1cc(C)n2CCNc1cc(-c2cc(O)c(C(=O)O)s2)ncn1 [Example 799, 5-{6-[2-(7-Fluoro-4-methoxy-2-methyl-indol-1-yl)-ethylamino]-pyrimidin-4-yl}-3-hydroxy-thiophene-2-carboxylic acid]
PTGER2 (EP2); [3]
  IC50: 21 nM
PTRGER4 (EP4); [4]
  IC50: 59 nM

## COc1cc(F)cc2c1cc(C)n2CCNc1cc(-c2cc(O)c(C(=O)O)s2)ncn1 [Example 800, 5-{6-[2-(6-Fluoro-4-methoxy-2-methyl-indol-1-yl)-ethylamino]-pyrimidin-4-yl}-3-hydroxy-thiophene-2-carboxylic acid]
PTGER2 (EP2); [3]
  IC50: 12 nM
PTRGER4 (EP4); [4]
  IC50: 44 nM

## COc1ccc(F)c2c1cc(C#N)n2CCNc1cc(-c2cc(OC(C)C)c(C(=O)O)s2)ncn1 [Example 802, 5-{6-[2-(2-Cyano-7-fluoro-4-methoxy-indol-1-yl)-ethylamino]-pyrimidin-4-yl}-3-isopropoxy-thiophene-2-carboxylic acid]
PTGER2 (EP2); [3]
  IC50: 7 nM
PTRGER4 (EP4); [4]
  IC50: 1 nM

## CCOc1cc(-c2cc(NCCn3c(C#N)cc4c(OC)ccc(F)c43)ncn2)ccc1-c1nnn[nH]1 [Example 803, 1-(2-{6-[3-Ethoxy-4-(1H-tetrazol-5-yl)-phenyl]-pyrimidin-4-ylamino}-ethyl)-7-fluoro-4-methoxy-1H-indole-2-carbonitrile]
PTGER2 (EP2); [3]
  IC50: 10 nM
PTRGER4 (EP4); [4]
  IC50: 4 nM

## COc1ccc(F)c2c1cc(C#N)n2CCNc1cc(-c2cc(C(F)(F)F)c(C(=O)O)s2)ncn1 [Example 804, 5-{6-[2-(2-Cyano-7-fluoro-4-methoxy-indol-1-yl)-ethylamino]-pyrimidin-4-yl}-3-trifluoromethyl-thiophene-2-carboxylic acid]
PTGER2 (EP2); [3]
  IC50: 3 nM
PTRGER4 (EP4); [4]
  IC50: 2 nM

## CCOc1cc(-c2cc(NCCn3c(C#N)cc4c(OC)ccc(F)c43)ncn2)sc1C(=O)O [Example 805, 5-{6-[2-(2-cyano-7-fluoro-4-methoxy-indol-1-yl)-ethylamino]-pyrimidin-4-yl}-3-ethoxy-thiophene-2-carboxylic acid]
PTGER2 (EP2); [3]
  IC50: 4 nM
PTRGER4 (EP4); [4]
  IC50: 5 nM

## COc1ccc(F)c2c1cc(C#N)n2CCNc1cc(-c2cc(F)c(C(=O)O)s2)ncn1 [Example 806, 5-{6-[2-(2-Cyano-7-fluoro-4-methoxy-indol-1-yl)-ethylamino]-pyrimidin-4-yl}-3-fluoro-thiophene-2-carboxylic acid]
PTGER2 (EP2); [3]
  IC50: 7 nM
PTRGER4 (EP4); [4]
  IC50: 10 nM

## CCOc1cc(-c2cc(NCCn3c(C#N)cc4c(OC)ccc(F)c43)ncn2)ccc1C(=O)O [Example 807, 4-{6-[2-(2-Cyano-7-fluoro-4-methoxy-indol-1-yl)-ethylamino]-pyrimidin-4-yl}-2-ethoxy-benzoic acid]
PTGER2 (EP2); [3]
  IC50: 32 nM
PTRGER4 (EP4); [4]
  IC50: 55 nM

## CCOc1cc(-c2cc(NCCn3c(C#N)cc4c(OC)ccc(F)c43)ncn2)ccc1OCC(=O)O [Example 808, (4-{6-[2-(2-Cyano-7-fluoro-4-methoxy-indol-1-yl)-ethylamino]-pyrimidin-4-yl}-2-ethoxy-phenoxy)-acetic acid]
PTGER2 (EP2); [3]
  IC50: 7 nM
PTRGER4 (EP4); [4]
  IC50: 4 nM

## CCOc1cc(-c2cc(NCCn3c(C#N)cc4c(OC)ccc(F)c43)ncn2)sc1C(=O)NS(C)(=O)=O [Example 809, N-(5-{6-[2-(2-Cyano-7-fluoro-4-methoxy-indol-1-yl)-ethylamino]-pyrimidin-4-yl}-3-ethoxy-thiophene-2-carbonyl)-methanesulfonamide]
PTGER2 (EP2); [3]
  IC50: 3 nM
PTRGER4 (EP4); [4]
  IC50: 6 nM

## CCOc1cc(-c2cc(NCCn3c(C)cc4c(OC)ccc(F)c43)ncn2)ccc1OCC(=O)O [Example 810, (2-Ethoxy-4-{6-[2-(7-fluoro-4-methoxy-2-methyl-indol-1-yl)-ethylamino]-pyrimidin-4-yl}-phenoxy)-acetic acid]
PTGER2 (EP2); [3]
  IC50: 9 nM
PTRGER4 (EP4); [4]
  IC50: 28 nM

## CCOc1cc(-c2cc(NCCn3c(C)cc4c(OC)ccc(F)c43)ncn2)ccc1NCC(=O)O [Example 811, (2-Ethoxy-4-{6-[2-(7-fluoro-4-methoxy-2-methyl-indol-1-yl)-ethylamino]-pyrimidin-4-yl}-phenylamino)-acetic acid]
PTGER2 (EP2); [3]
  IC50: 3 nM
PTRGER4 (EP4); [4]
  IC50: 20 nM

## CCOc1cc(-c2cc(NCCn3c(C)cc4c(F)ccc(C)c43)ncn2)ccc1C(=O)O [Example 812, 2-Ethoxy-4-{6-[2-(4-fluoro-2,7-dimethyl-indol-1-yl)-ethylamino]-pyrimidin-4-yl}-benzoic acid]
PTGER2 (EP2); [3]
  IC50: 2 nM
PTRGER4 (EP4); [4]
  IC50: 976 nM

## CCOc1cc(-c2cc(NCCn3c(C#N)cc4c(OC)cccc43)ncn2)sc1C(=O)O [Example 813, 5-{6-[2-(2-Cyano-4-methoxy-indol-1-yl)-ethylamino]-pyrimidin-4-yl}-3-ethoxy-thiophene-2-carboxylic acid]
PTGER2 (EP2); [3]
  IC50: 2 nM
PTRGER4 (EP4); [4]
  IC50: 3 nM

## CCOc1cc(-c2cc(NCCn3c(C#N)cc4c(OC)ccc(F)c43)ncn2)sc1C(=O)NS(=O)(=O)c1ccccc1 [Example 814, N-(5-{6-[2-(2-Cyano-7-fluoro-4-methoxy-indol-1-yl)-ethylamino]-pyrimidin-4-yl}-3-ethoxy-thiophene-2-carbonyl)-benzenesulfonamide]
PTGER2 (EP2); [3]
  IC50: 7 nM
PTRGER4 (EP4); [4]
  IC50: 2 nM

## CCOc1cc(-c2cc(NCCn3c(C#N)cc4c(OC)ccc(F)c43)ncn2)sc1C(=O)NS(=O)(=O)C(C)C [Example 815, Propane-2-sulfonic acid (5-{6-[2-(2-cyano-7-fluoro-4-methoxy-indol-1-yl)-ethylamino]-pyrimidin-4-yl}-3-ethoxy-thiophene-2-carbonyl)-amide]
PTGER2 (EP2); [3]
  IC50: 8 nM
PTRGER4 (EP4); [4]
  IC50: 7 nM

## CCOc1cc(-c2cc(NCCn3c(C#N)cc4c(OC)ccc(F)c43)ncn2)sc1C(=O)NS(=O)(=O)CC [Example 817, Ethanesulfonic acid (5-{6-[2-(2-cyano-7-fluoro-4-methoxy-indol-1-yl)-ethylamino]-pyrimidin-4-yl}-3-ethoxy-thiophene-2-carbonyl)-amide]
PTGER2 (EP2); [3]
  IC50: 4 nM
PTRGER4 (EP4); [4]
  IC50: 5 nM

## COc1cc(-c2cc(NCCn3c(C#N)cc4c(OC)ccc(F)c43)ncn2)ccc1-c1c[nH]cn1 [Example 818, 7-Fluoro-1-(2-{6-[4-(1H-imidazol-4-yl)-3-methoxy-phenyl]-pyrimidin-4-ylamino}-ethyl)-4-methoxy-1H-indole-2-carbonitrile]
PTGER2 (EP2); [3]
  IC50: 2 nM
PTRGER4 (EP4); [4]
  IC50: 1 nM

## COc1ccc(F)c2c1cc(C#N)n2CCNc1cc(-c2ccc(-c3nc[nH]c3C)cc2)ncn1 [Example 819, 7-Fluoro-4-methoxy-1-(2-{6-[4-(5-methyl-1H-imidazol-4-yl)-phenyl]-pyrimidin-4-ylamino}-ethyl)-1H-indole-2-carbonitrile]
PTGER2 (EP2); [3]
  IC50: 7 nM
PTRGER4 (EP4); [4]
  IC50: 2 nM

## CCOc1cc(-c2cc(NCCn3c(C#N)cc4c(OC)ccc(F)c43)ncn2)ccc1-c1noc(=O)[nH]1 [Example 820]
PTGER2 (EP2); [3]
  IC50: 6 nM
PTRGER4 (EP4); [4]
  IC50: 2 nM

## COc1ccc(F)c2c1cc(C#N)n2CCNc1cc(-c2ccc(-c3nc(C)[nH]c3C)cc2)ncn1 [Example 821, 1-(2-{6-[4-(2,5-Dimethyl-1H-imidazol-4-yl)-phenyl]-pyrimidin-4-ylamino}-ethyl)-7-fluoro-4-methoxy-1H-indole-2-carbonitrile]
PTGER2 (EP2); [3]
  IC50: 4 nM
PTRGER4 (EP4); [4]
  IC50: 2 nM

## CCc1cc(-c2cc(NCCn3c(C#N)cc4c(OC)ccc(F)c43)ncn2)ccc1O [Example 822, 1-{2-[6-(3-Ethyl-4-hydroxy-phenyl)-pyrimidin-4-ylamino]-ethyl}-7-fluoro-4-methoxy-1H-indole-2-carbonitrile]
PTGER2 (EP2); [3]
  IC50: 6 nM
PTRGER4 (EP4); [4]
  IC50: 5 nM
